*1 amine or outer side, *2 acyl side, *3 side chain or, on linkers, in order; H or OH if unused. Where a SMILES comes first, the peptide text is derived from it. Side-chain parts run from the residue outwards. [ ]: non-standard residue; d: D form. The star is where a group is joined. C20 diacid = O=C(O)CCCCCCCCCCCCCCCCCCC(=O)*; C18 diacid = O=C(O)CCCCCCCCCCCCCCCCC(=O)*; C16 diacid = O=C(O)CCCCCCCCCCCCCCC(=O)*; γGlu = O=C(O)[C@H](CCC(=O)[*:2])N[*:1]; NMeI = CC[C@H](C)[C@H](NC)C(=O)O; Ac3c = NC1(C(=O)O)CC1; Aib = CC(C)(N)C(=O)O
What was measured:
human CRF2a receptor = target: T1, human CRF2a receptor (Homo sapiens, UniProt Q13324); test: Activity at human CRF2a receptor, cAMP functional assay in TeloHEAC cells; type: cell-based; settings: TeloHEAC cells stably expressing human CRF2a receptor, relative to urocortin 2 (100 nM = 100%)
T1 construct: expressed in transfected cells; host or cells: TeloHEAC cells
T1 sequence (Q13324 1-411): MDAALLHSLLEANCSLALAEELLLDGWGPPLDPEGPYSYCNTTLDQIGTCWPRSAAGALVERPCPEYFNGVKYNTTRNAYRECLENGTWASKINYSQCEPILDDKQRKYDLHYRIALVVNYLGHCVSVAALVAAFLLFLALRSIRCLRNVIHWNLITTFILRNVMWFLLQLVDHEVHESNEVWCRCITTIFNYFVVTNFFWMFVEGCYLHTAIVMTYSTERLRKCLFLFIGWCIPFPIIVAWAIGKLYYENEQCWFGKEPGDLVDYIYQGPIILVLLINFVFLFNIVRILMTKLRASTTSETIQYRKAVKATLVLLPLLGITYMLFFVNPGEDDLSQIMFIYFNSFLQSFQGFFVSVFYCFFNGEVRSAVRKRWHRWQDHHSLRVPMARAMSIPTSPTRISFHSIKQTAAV
How it was run: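 TeloHEAC cells stably expressing human CRF2a (10000 cells/well) were treated with 16-point 1:2 compound dilutions in HBSS/20 mM HEPES with IBMX for 30 min at 37° C. cAMP was read by HTRF (665/620 nm ratio). EC50 was the concentration giving 50% activation, with 100 nM urocortin 2 set as 100%.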

CFR1R receptor = target: T2, CFR1R receptor (Homo sapiens, UniProt P34998); test: Activity at anti-target CFR1R receptor, cAMP assay in CRF1R-overexpression CHO-K1 cells; type: cell-based; settings: 100% = Sauvagine at 100 nM; for EC50: cAMP
T2 construct: host or cells: CHO-K1 (clone 2)
T2 sequence (P34998 24-415): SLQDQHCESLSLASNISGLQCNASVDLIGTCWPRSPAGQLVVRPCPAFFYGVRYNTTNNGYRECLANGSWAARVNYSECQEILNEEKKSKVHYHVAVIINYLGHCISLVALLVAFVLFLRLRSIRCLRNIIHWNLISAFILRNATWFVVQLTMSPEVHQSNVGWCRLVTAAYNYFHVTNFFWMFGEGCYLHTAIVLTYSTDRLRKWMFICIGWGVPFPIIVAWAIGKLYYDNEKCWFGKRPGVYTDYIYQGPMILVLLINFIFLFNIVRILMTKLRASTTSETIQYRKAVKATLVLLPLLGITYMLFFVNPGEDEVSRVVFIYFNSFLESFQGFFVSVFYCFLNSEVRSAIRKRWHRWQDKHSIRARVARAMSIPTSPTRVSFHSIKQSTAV
How it was run: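 Signal is normalised to 100 nM Sauvagine, taken as 100% activation, in clone 2 cells plated at a final 4000 cells/well from frozen stocks.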

[1] = In vitro subcutaneous tissue supernatant (SCts) stability and metabolite identification, rat; type: in vitro ADME; parameters: remaining at 2 h: dose or concentration left out as unconfirmed; settings: male, Sprague Dawley; rat subcutaneous tissue supernatant (SCts), 37° C, 2 h
Procedure: In vitro metabolic stability in subcutaneous tissue supernatant (SCts) was studied in male Sprague Dawley rats. Test compounds were incubated […] for 2 hours at 37° C.
Software aided in vitro metabolite identification on SCts stability samples was performed using either Metabolite Pilot (Sciex) or Biopharma Finder (Thermo). In addition, metabolite identification using Metabolite Pilot was performed on plasma samples of Comp Y following SC administration to rat at 1 mg/kg.

[2] = Chemical stability in buffer (pH 7.4 / pH 4.5), % purity loss; type: physicochemical; settings: 40° C. vs 5° C., 14 or 28 days; for Buffer stability pH 7.4 % purity loss: 100 mM phosphate buffer pH 7.4; for Buffer stability pH 4.5 % purity loss: 100 mM acetate buffer pH 4.5
How it was run: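 Compounds dissolved at 10 mg/mL target in 100 mM phosphate (pH 7.4) or 100 mM acetate (pH 4.5) buffer for 1 h at room temperature, then centrifuged. Diluted supernatant stored at 5 °C or 40 °C for 14 or 28 days; % purity loss by LC-UV.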

Sprague Dawley rats = test: Effect on systolic blood pressure, telemetry in Sprague Dawley rats; type: in vivo, rat; settings: 0.1 mg/kg SC
How it was run: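 Sprague Dawley rats with abdominal-aorta telemetry catheters, recovered ≥10 days, received 0.1 mg/kg SC of compound or vehicle. Systolic pressure recorded 1 h pre-dose as baseline, then continuously up to 48 hours, expressed as % change from baseline; duration of action is last time point with a BP effect (n=2).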

Structure (SMILES)	EC50 (human CRF2a receptor)	Emax (% I) (CFR1R receptor)	EC50 (CFR1R receptor)	remaining at 2 h [1]	Buffer stability pH 7.4 % purity loss [2]	Systolic blood pressure (Mean) % change from baseline, 8 h (Sprague Dawley rats; 8 h, n=2)	Systolic blood pressure (Mean) % change from baseline, 12 h (Sprague Dawley rats; 12 h, n=2)	Systolic blood pressure (Mean) % change from baseline, 24 h (Sprague Dawley rats; 24 h, n=2)	Duration of action (Sprague Dawley rats; last time point with an effect on BP still observed)	Buffer stability pH 4.5 % purity loss [2]
CC[C@H](C)[C@H](NC(C)=O)C(=O)N[C@H](C(=O)N[C@@H](CC(C)C)C(=O)N[C@@H](CO)C(=O)N[C@@H](CC(C)C)C(=O)N[C@@H](CC(=O)O)C(=O)N[C@@H](C(=O)N1CCC[C@H]1C(=O)N[C@H](C(=O)N[C@@H](CCCCN)C(=O)N[C@@H](CC(C)C)C(=O)N[C@@H](CCCCNC(=O)CC[C@H](NC(=O)CCCCCCCCCCCCCCC(=O)O)C(=O)O)C(=O)N[C@@H](CCCCN)C(=O)N[C@H](C(=O)N[C@@H](CC(C)C)C(=O)N[C@@H](CC(C)C)C(=O)N[C@@H](CCC(=O)O)C(=O)N[C@@H](CCC(N)=O)C(=O)N[C@@H](CCC(=O)O)C(=O)N[C@@H](CCCCN)C(=O)N[C@@H](CCC(N)=O)C(=O)N[C@@H](CCCCN)C(=O)N[C@@H](CCCCN)C(=O)N[C@@H](CCC(N)=O)C(=O)N[C@@H](CCCNC(=N)N)C(=O)N[C@@H](CCC(=O)O)C(=O)N[C@@H](CCC(N)=O)C(=O)N[C@@H](C)C(=O)N[C@@H](CCC(=O)O)C(=O)N[C@H](C(=O)N[C@@H](CC(N)=O)C(=O)NC(C)(C)C(=O)N[C@@H](CCC(N)=O)C(=O)N[C@H](C(=O)N[C@@H](CC(C)C)C(=O)N[C@@H](C)C(=O)N[C@@H](CCC(N)=O)C(=O)N[C@H](C(N)=O)C(C)C)[C@@H](C)CC)[C@@H](C)O)[C@@H](C)CC)[C@@H](C)CC)C(C)C)C(C)C [compound 40] (Ac-IVLSLD[dV]PIKLK([γGlu-C16 diacid])KILLEQEKQKKQREQAETN[Aib]QILAQV-NH2)	250 pM	0 % I	> 250000 pM	79%	0/nd ^ %	−30%	−18%	7%	23 h	–
CC[C@H](C)[C@H](NC)C(=O)N[C@H](C(=O)N[C@@H](CC(C)C)C(=O)N[C@@H](CO)C(=O)N[C@@H](CC(C)C)C(=O)N[C@@H](CC(=O)O)C(=O)N[C@@H](C(=O)N1CCC[C@H]1C(=O)N[C@H](C(=O)N[C@@H](CCCCN)C(=O)N[C@@H](CC(C)C)C(=O)N[C@@H](CCCCNC(=O)CC[C@H](NC(=O)CCCCCCCCCCCCCCCCCCC(=O)O)C(=O)O)C(=O)N[C@@H](CCCCN)C(=O)N[C@H](C(=O)N[C@@H](CC(C)C)C(=O)N[C@@H](CC(C)C)C(=O)N[C@@H](CCC(=O)O)C(=O)N[C@@H](CCC(N)=O)C(=O)N[C@@H](CCC(=O)O)C(=O)N[C@@H](CCCCN)C(=O)N[C@@H](CCC(N)=O)C(=O)N[C@@H](CCCCN)C(=O)N[C@@H](CCCCN)C(=O)N[C@@H](CCC(N)=O)C(=O)N[C@@H](CCCNC(=N)N)C(=O)N[C@@H](CCC(=O)O)C(=O)N[C@@H](CCC(N)=O)C(=O)N[C@@H](C)C(=O)N[C@@H](CCC(=O)O)C(=O)N[C@H](C(=O)N[C@@H](CC(N)=O)C(=O)NC(C)(C)C(=O)N[C@@H](CCC(N)=O)C(=O)N[C@H](C(=O)N[C@@H](CC(C)C)C(=O)N[C@@H](C)C(=O)N[C@@H](CCC(N)=O)C(=O)N[C@H](C(N)=O)C(C)C)[C@@H](C)CC)[C@@H](C)O)[C@@H](C)CC)[C@@H](C)CC)C(C)C)C(C)C [compound 214] (H-[NMeI]VLSLD[dV]PIKLK([γGlu-C20 diacid])KILLEQEKQKKQREQAETN[Aib]QILAQV-NH2)	120 pM	34 % I	> 250000 pM	72%	0.0/0.0 ^ %	–	–	–	–	0.0/0.0 ^ %
CC[C@H](C)[C@H](NC(C)=O)C(=O)N[C@H](C(=O)N[C@@H](CC(C)C)C(=O)N[C@@H](CO)C(=O)N[C@@H](CC(C)C)C(=O)N[C@@H](CC(=O)O)C(=O)N[C@@H](C(=O)N1CCC[C@H]1C(=O)N[C@H](C(=O)N[C@@H](CCCCN)C(=O)N[C@@H](CC(C)C)C(=O)N[C@@H](CCCCNC(=O)CC[C@H](NC(=O)CCCCCCCCCCCCCCCCC(=O)O)C(=O)O)C(=O)N[C@@H](CCCCN)C(=O)N[C@H](C(=O)N[C@@H](CC(C)C)C(=O)N[C@@H](CC(C)C)C(=O)N[C@@H](CCC(=O)O)C(=O)N[C@@H](CCC(N)=O)C(=O)N[C@@H](CCC(=O)O)C(=O)N[C@@H](CCCCN)C(=O)N[C@@H](CCC(N)=O)C(=O)N[C@@H](CCCCN)C(=O)N[C@@H](CCCCN)C(=O)N[C@@H](CCC(N)=O)C(=O)N[C@@H](CCCNC(=N)N)C(=O)N[C@@H](CCC(=O)O)C(=O)N[C@@H](CCC(N)=O)C(=O)N[C@@H](C)C(=O)N[C@@H](CCC(=O)O)C(=O)N[C@H](C(=O)N[C@@H](CC(N)=O)C(=O)NC1(C(=O)N[C@@H](CCC(N)=O)C(=O)N[C@H](C(=O)N[C@@H](CC(C)C)C(=O)N[C@@H](C)C(=O)N[C@@H](CCC(N)=O)C(=O)N[C@H](C(N)=O)C(C)C)[C@@H](C)CC)CC1)[C@@H](C)O)[C@@H](C)CC)[C@@H](C)CC)C(C)C)C(C)C [compound 136] (Ac-IVLSLD[dV]PIKLK([γGlu-C18 diacid])KILLEQEKQKKQREQAETN[Ac3c]QILAQV-NH2)	160 pM	5 % I	> 250000 pM	78%	24.3%	–	–	–	–	0.0%
CC[C@H](C)[C@H](NC(C)=O)C(=O)N[C@H](C(=O)N[C@@H](CC(C)C)C(=O)N[C@@H](CO)C(=O)N[C@@H](CC(C)C)C(=O)N[C@@H](CC(=O)O)C(=O)N[C@@H](C(=O)N1CCC[C@H]1C(=O)N[C@H](C(=O)N[C@@H](CCCCN)C(=O)N[C@@H](CC(C)C)C(=O)N[C@@H](CCCCNC(=O)CC[C@H](NC(=O)CCCCCCCCCCCCCCC(=O)O)C(=O)O)C(=O)N[C@@H](CCCCN)C(=O)N[C@H](C(=O)N[C@@H](CC(C)C)C(=O)N[C@@H](CC(C)C)C(=O)N[C@@H](CCC(=O)O)C(=O)N[C@@H](CCC(N)=O)C(=O)N[C@@H](CCC(=O)O)C(=O)N[C@@H](CCCCN)C(=O)N[C@@H](CCC(N)=O)C(=O)N[C@@H](CCCCN)C(=O)N[C@@H](C)C(=O)N[C@@H](CCC(N)=O)C(=O)N[C@@H](CCCNC(=N)N)C(=O)N[C@@H](CCC(=O)O)C(=O)N[C@@H](CCC(N)=O)C(=O)N[C@@H](C)C(=O)N[C@@H](CCC(=O)O)C(=O)N[C@H](C(=O)N[C@@H](CC(N)=O)C(=O)NC(C)(C)C(=O)N[C@@H](CCC(N)=O)C(=O)N[C@H](C(=O)N[C@@H](CC(C)C)C(=O)N[C@@H](C)C(=O)N[C@@H](CCC(N)=O)C(=O)N[C@H](C(N)=O)C(C)C)[C@@H](C)CC)[C@@H](C)O)[C@@H](C)CC)[C@@H](C)CC)C(C)C)C(C)C [compound 161] (Ac-IVLSLD[dV]PIKLK([γGlu-C16 diacid])KILLEQEKQKAQREQAETN[Aib]QILAQV-NH2)	320 pM	3 % I	> 250000 pM	59%	0.6/Not Tested %	–	–	–	–	–

From US20260001928A1 (CORTERIA PHARMACEUTICALS, priority 2022, published 2026)
